Patent US10597388B2, “Pyridazinone herbicides” (FMC CORPORATION, priority 2014, dated 2020)

How the values were obtained:
Assay type in all cases: in vivo
[1] = system: waterhemp_RES2 (ALS & HPPD resistant common waterhemp, Amaranthus rudis); assay: Test E greenhouse herbicide test, postemergence
In short: (§1)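 Postemergence spray on potted plants, 1–4 leaves, 2–18 cm; greenhouse 14–21 d; visual rating vs controls, 0 (no effect) to 100 (complete control).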

[2] = system: waterhemp_RES1 (ALS & Triazine resistant common waterhemp, Amaranthus rudis); assay: Test E greenhouse herbicide test, postemergence
In short: as §1

corn (Zea mays) = assay: Test E greenhouse herbicide test, pre- and postemergence
In short: (§2)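 For each species, sown seed in silt loam and young plants (2 to 18 cm) in a peat/vermiculite medium were each treated with compound dissolved in surfactant-containing, non-phytotoxic solvent. After 14 to 21 d under greenhouse conditions, effects were visually rated, 100 meaning complete control.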

[3] = system: Italian ryegrass (Lolium multiflorum); assay: as above
In short: as §2

[4] = system: dayflower (Virginia (VA) dayflower, Commelina virginica); assay: as above
In short: as §2

[5] = system: waterhemp (common waterhemp, Amaranthus rudis); assay: as above
In short: as §2

[6] = system: lambsquarters (Chenopodium album); assay: as above; conditions: Preemergence
In short: as §2

kochia (Kochia scoparia) = assay: as above
In short: as §2

[7] = system: beggarticks (hairy beggarticks, Bidens pilosa); assay: as above
In short: as §2

[8] = system: sandbur (southem sandbur, Cenchrus echinatus); assay: as above
In short: as §2

[9] = system: foxtail, green (green foxtail, Setaria viridis); assay: as above; conditions: Preemergence
In short: as §2

[10] = system: nutsedge, yellow (yellow nutsedge, Cyperus esculentus); assay: as above; conditions: Preemergence
In short: as §2

[11] = system: wild poinsettia (Euphorbia heterophylla); assay: as above
In short: as §2

[12] = system: velvetleaf (Abutilon theophrasti); assay: as above; conditions: Preemergence
In short: as §2

[13] = 31 g ai/ha, visual, scale 0 no effect to 100 complete control
[14] = 62 g ai/ha, scale 0 to 100 (0 no effect, 100 complete control)
[15] = 125 g ai/ha, scale 0 to 100 (0 no effect, 100 complete control)
[16] = 250 g ai/ha, scale 0 to 100 (0 no effect, 100 complete control)
[17] = 62 g ai/ha, Postemergence, scale 0 to 100 (0 no effect, 100 complete control)
[18] = 62 g ai/ha, Preemergence, scale 0 to 100 (0 no effect, 100 complete control)
[19] = 125 g ai/ha, Postemergence, scale 0 to 100 (0 no effect, 100 complete control)
[20] = 125 g ai/ha, Preemergence, scale 0 to 100 (0 no effect, 100 complete control)
[21] = 250 g ai/ha, Postemergence, scale 0 to 100 (0 no effect, 100 complete control)
[22] = Postemergence, 31 g ai/ha, visual, scale 0 no effect to 100 complete control
[23] = Preemergence, 31 g ai/ha, scale 0 to 100, 0 no effect, 100 complete control
[24] = Preemergence, 250 g ai/ha, visual, scale 0 no effect to 100 complete control
[25] = 31 g ai/ha, scale 0 to 100, 0 no effect, 100 complete control
[26] = 250 g ai/ha, visual, scale 0 no effect to 100 complete control

## Cc1ccc2sc(Br)c(-c3c(O)c(C)nn(C)c3=O)c2c1 [Compound 79]
[1]; [13]
  Plant response rating, Waterhemp_RES2: 20
[1]; [14]
  Plant response rating, Waterhemp_RES2: 15
[1]; [15]
  Plant response rating, Waterhemp_RES2: 15
[1]; [16]
  Plant response rating, Waterhemp_RES2: 55
[2]; [13]
  Plant response rating, Waterhemp_RES1: 50
[2]; [14]
  Plant response rating, Waterhemp_RES1: 60
[2]; [15]
  Plant response rating, Waterhemp_RES1: 70
[2]; [16]
  Plant response rating, Waterhemp_RES1: 75
Corn (Zea mays); [17]
  Plant response rating, Corn: 0
Corn (Zea mays); [18]
  Plant response rating, Corn: 0
Corn (Zea mays); [19]
  Plant response rating, Corn: 0
Corn (Zea mays); [20]
  Plant response rating, Corn: 0
Corn (Zea mays); [21]
  Plant response rating, Corn: 0
Corn (Zea mays); [22]
  Plant response rating, Corn: 0
Corn (Zea mays); [23]
  Plant response rating, Corn: 0
Corn (Zea mays); [24]
  Plant response rating, Corn: 20
[3]; [17]
  Plant response rating, Ryegrass, Italian: 40
[3]; [18]
  Plant response rating, Ryegrass, Italian: 80
[3]; [19]
  Plant response rating, Ryegrass, Italian: 70
[3]; [20]
  Plant response rating, Ryegrass, Italian: 100
[3]; [21]
  Plant response rating, Ryegrass, Italian: 80
[3]; [22]
  Plant response rating, Ryegrass, Italian: 30
[3]; [23]
  Plant response rating, Ryegrass, Italian: 75
[3]; [24]
  Plant response rating, Ryegrass, Italian: 100
[4]; [17]
  Plant response rating, Dayflower, VA: 50
[4]; [18]
  Plant response rating, Dayflower, VA: 70
[4]; [19]
  Plant response rating, Dayflower, VA: 60
[4]; [20]
  Plant response rating, Dayflower, VA: 65
[4]; [21]
  Plant response rating, Dayflower, VA: 65
[4]; [22]
  Plant response rating, Dayflower, VA: 50
[4]; [23]
  Plant response rating, Dayflower, VA: 50
[4]; [24]
  Plant response rating, Dayflower, VA: 70
[5]; [17]
  Plant response rating, Waterhemp: 60
[5]; [18]
  Plant response rating, Waterhemp: 100
[5]; [19]
  Plant response rating, Waterhemp: 70
[5]; [20]
  Plant response rating, Waterhemp: 100
[5]; [21]
  Plant response rating, Waterhemp: 80
[5]; [22]
  Plant response rating, Waterhemp: 50
[5]; [23]
  Plant response rating, Waterhemp: 75
[5]; [24]
  Plant response rating, Waterhemp: 100
[6]; [14]
  Plant response rating, Lambsquarters: 100
[6]; [15]
  Plant response rating, Lambsquarters: 100
[6]; [25]
  Plant response rating, Lambsquarters: 100
[6]; [26]
  Plant response rating, Lambsquarters: 100
Kochia (Kochia scoparia); [17]
  Plant response rating, Kochia: 80
Kochia (Kochia scoparia); [18]
  Plant response rating, Kochia: 70
Kochia (Kochia scoparia); [19]
  Plant response rating, Kochia: 90
Kochia (Kochia scoparia); [20]
  Plant response rating, Kochia: 100
Kochia (Kochia scoparia); [21]
  Plant response rating, Kochia: 98
Kochia (Kochia scoparia); [22]
  Plant response rating, Kochia: 70
Kochia (Kochia scoparia); [23]
  Plant response rating, Kochia: 50
Kochia (Kochia scoparia); [24]
  Plant response rating, Kochia: 100
[7]; [17]
  Plant response rating, Beggarticks: 100
[7]; [18]
  Plant response rating, Beggarticks: 100
[7]; [19]
  Plant response rating, Beggarticks: 100
[7]; [20]
  Plant response rating, Beggarticks: 100
[7]; [21]
  Plant response rating, Beggarticks: 100
[7]; [22]
  Plant response rating, Beggarticks: 100
[7]; [23]
  Plant response rating, Beggarticks: 100
[7]; [24]
  Plant response rating, Beggarticks: 100
[8]; [17]
  Plant response rating, Sandbur: 30
[8]; [18]
  Plant response rating, Sandbur: 70
[8]; [19]
  Plant response rating, Sandbur: 50
[8]; [20]
  Plant response rating, Sandbur: 80
[8]; [21]
  Plant response rating, Sandbur: 65
[8]; [22]
  Plant response rating, Sandbur: 20
[8]; [23]
  Plant response rating, Sandbur: 60
[8]; [24]
  Plant response rating, Sandbur: 75
[9]; [14]
  Plant response rating, Foxtail, Green: 70
[9]; [15]
  Plant response rating, Foxtail, Green: 80
[9]; [25]
  Plant response rating, Foxtail, Green: 55
[9]; [26]
  Plant response rating, Foxtail, Green: 90
[10]; [14]
  Plant response rating, Nutsedge, Yellow: 60
[10]; [15]
  Plant response rating, Nutsedge, Yellow: 65
[10]; [25]
  Plant response rating, Nutsedge, Yellow: 50
[10]; [26]
  Plant response rating, Nutsedge, Yellow: 75
[11]; [17]
  Plant response rating, Poinsettia, Wild: 10
[11]; [18]
  Plant response rating, Poinsettia, Wild: 60
[11]; [19]
  Plant response rating, Poinsettia, Wild: 20
[11]; [20]
  Plant response rating, Poinsettia, Wild: 60
[11]; [21]
  Plant response rating, Poinsettia, Wild: 10
[11]; [22]
  Plant response rating, Poinsettia, Wild: 10
[11]; [23]
  Plant response rating, Poinsettia, Wild: 50
[11]; [24]
  Plant response rating, Poinsettia, Wild: 55
[12]; [14]
  Plant response rating, Velvetleaf: 80
[12]; [15]
  Plant response rating, Velvetleaf: 95
[12]; [25]
  Plant response rating, Velvetleaf: 70
[12]; [26]
  Plant response rating, Velvetleaf: 100
